Data published in publication PMC10641913 (ACS Medicinal Chemistry Letters, 2023).
pIC50: −log10 of the molar value. Values joined by “and” are separate entries in the source; they are usually repeats but may differ in a detail not shown here. Equal values may be shown once.

Assays:
S. mansoni [1] = system: S. mansoni; design: key: “+++” indicates a complete reduction of worms at 50 mg/kg dosing (×5); “++” indicates complete reduction of worms at 500 mg/kg dosing (×5); “+” indicates less than 90% worm reduction at 500 mg/kg dosing (×5); “0” indicates no effect at 500 mg/kg dosing (×5); settings: mouse model, dosing ×5; ref [1]; cited from earlier work
Eg.TRPMPZQ = Eg.TRPMPZQ (Echinococcus granulosus, UniProt W6UVV9); type: cell-based; settings: Eg.TRPMPZQ and Mc.TRPMPZQ; for activity at cestode TRPMPZQ orthologs (in words): both cestode channels
Experimental: (§1) This was done using a fluorescence-based reporter assay to measure changes in cytosolic Ca^2+ in HEK293 cells transiently expressing the individual TRPMPZQ ion channels.
(§2) Sprague et. al. Supporting Information
(§3) Cell Culture and transfection. Activation of the three TRPMPZQ orthologs1 (Sm.TRPMPZQ, Eg.TRPMPZQ and Mc.TRPMPZQ) was measured using a Ca2+ reporter assay, following transient transfection of codon-optimized constructs (Genscript) into HEK293 cells.
(§4) The HEK293 cell line (ATCC CRL-1573.3) was authenticated by STR profiling (ATCC), and cells were evaluated for mycoplasma contamination by monthly scheduled testing (LookOut® Mycoplasma PCR Detection Kit, Sigma). HEK293 cells were cultured at 37 °C in a humidified incubator in Dulbecco’s Modified Eagle Medium (DMEM) supplemented with 10% fetal bovine serum (FBS), penicillin (100 units/mL), streptomycin (100 μg/mL), and L-glutamine (290 μg/mL). Cells were transfected using Lipofectamine-2000 at a density of 3x10^6 cells per petri dish (100 mm diameter) 24 h prior to replating into 384 well plates for functional assays.
(§5) Ca2+ imaging assays. Ca2+ imaging assays were performed using a Fluorescence Imaging Plate Reader (FLIPR TETRA, Molecular Devices). HEK293 cells (naïve or transfected) were seeded (20,000 cells/well) in a black-walled clear-bottomed poly-d-lysine coated 384-well plate (Greiner Bio-One) in DMEM growth media supplemented with 10% FBS. After 24 h, growth medium was removed, and cells were loaded with a fluorescent Ca2+ indicator (Fluo-4 NW dye, Invitrogen) by incubation (20 µL per well, 1 h at 37°C) in Hanks' balanced salt solution (HBSS) assay buffer containing probenecid (2.5 mM) and HEPES (20 mM). Drug dilutions were prepared in assay buffer, without probenecid and dye, in ‘V’-shape 384-well plates (Greiner Bio-one, Germany). After indicator loading, the Ca2+ assay was performed at room temperature. Basal fluorescence was monitored for 20 s, then 5 μL of each drug added, and the signal (raw fluorescence units) was monitored over an additional 250 s. Changes in fluorescence were calculated by subtracting the average basal fluorescence (averaged values between 0 to 20 s) from the maximum fluorescence value. These values were normalized to the response of (±)-PZQ at the corresponding TRPMPZQ channel and plotted. Concentration-response curves were generated in GraphPad Prism (v.
(§6) 9.5.1) using the default three -parameter curve fitting and constraining the bottom of the curve to 0%. The reported EC 50 values represent the mean ± SEM of n ≥ 3 independent transfections. […]

Sm.TRPMPZQ = Sm.TRPMPZQ (Schistosoma mansoni, UniProt A0A5K4F0X5); test: cell-based; type: cell-based; settings: for this work: EC50 (μM) Sm.TRPMPZQ / EC50: HEK293 transient expression, mean ± SEM, n ≥ 3 independent transfections; for EC50: read-out: this work: EC50 (μM) Sm.TRPMPZQ
Experimental: as §1, §2, §3, §4, §5, §6

H. nana = system: H. nana; design: key: “+++” indicates a complete reduction of worms at 25 mg/kg dosing (×1); “++” indicates complete reduction of worms at 500 mg/kg dosing (×1); “+” indicates less than 90% worm reduction at 500 mg/kg dosing (×1); “0” indicates no effect at 500 mg/kg dosing (×1); settings: mouse model, dosing ×1; ref [1]; cited from earlier work
S. mansoni [2] = settings: ref [1]; cited from earlier work
[3] = system: E. multilocularis protoscoleces; test: Cestode motility assay on protoscoleces; type: cell-based, Echinococcus multilocularis; settings: for pIC50: Echinococcus multilocularis
Experimental: To determine IC50 values, concentration–response curves were obtained at multiple time points (Figure 2E–G).
Figure 2 E. multilocularis protoscoleces after treatment with (A) DMSO, (B) (±)-PZQ (1 μM), (C) (R)-2 (30 μM), and (D) (S)-2 (100 μM). (E–G) Concentration–response motility graphs of E. multilocularis protosoleces after treatment with (±)-PZQ (blue circles), (R)-2 (red circles), and (S)-2 (purple circles) after (E) 0.5 h, (F) 12 h, and (G) 24 h. Data are plotted as % motility vs vehicle (DMSO) control (mean ± SEM). […]
Cestode motility assays . Protoscoleces of E. multilocularis strain MB17 were isolated from metacestode material grown in experimentally infected gerbils (kindly provided by Prof. Dr. K. Brehm, University of Würzburg, Germany). Extraction and acti vation of protoscoleces, as well as subsequent motility assays were performed as described previously. 2 In short, protoscoleces were activated by 10% DMSO for 3 h at 37°C, in a humid atmosphere, with 5% CO 2 and left to recover overnight in DMEM (Biochrom, Berlin, Germany) supplemented with 10% FBS (Biochrom) at 37°C, in a humid atmosphere, with 5% CO 2. The next day, 25 protoscoleces were distributed into individual wells of a white, flat -bottom 384 well plate (Huberlab, Aesch, Switzerland). PZQ analogs were added […]
The assay plate was sealed with a clear view seal foil (Huberlab), and motility was measured in a live cell imaging system (Nikon TE2000E, Hamatsu ORCA ER

Sequence of Eg.TRPMPZQ (W6UVV9 entry or part of it): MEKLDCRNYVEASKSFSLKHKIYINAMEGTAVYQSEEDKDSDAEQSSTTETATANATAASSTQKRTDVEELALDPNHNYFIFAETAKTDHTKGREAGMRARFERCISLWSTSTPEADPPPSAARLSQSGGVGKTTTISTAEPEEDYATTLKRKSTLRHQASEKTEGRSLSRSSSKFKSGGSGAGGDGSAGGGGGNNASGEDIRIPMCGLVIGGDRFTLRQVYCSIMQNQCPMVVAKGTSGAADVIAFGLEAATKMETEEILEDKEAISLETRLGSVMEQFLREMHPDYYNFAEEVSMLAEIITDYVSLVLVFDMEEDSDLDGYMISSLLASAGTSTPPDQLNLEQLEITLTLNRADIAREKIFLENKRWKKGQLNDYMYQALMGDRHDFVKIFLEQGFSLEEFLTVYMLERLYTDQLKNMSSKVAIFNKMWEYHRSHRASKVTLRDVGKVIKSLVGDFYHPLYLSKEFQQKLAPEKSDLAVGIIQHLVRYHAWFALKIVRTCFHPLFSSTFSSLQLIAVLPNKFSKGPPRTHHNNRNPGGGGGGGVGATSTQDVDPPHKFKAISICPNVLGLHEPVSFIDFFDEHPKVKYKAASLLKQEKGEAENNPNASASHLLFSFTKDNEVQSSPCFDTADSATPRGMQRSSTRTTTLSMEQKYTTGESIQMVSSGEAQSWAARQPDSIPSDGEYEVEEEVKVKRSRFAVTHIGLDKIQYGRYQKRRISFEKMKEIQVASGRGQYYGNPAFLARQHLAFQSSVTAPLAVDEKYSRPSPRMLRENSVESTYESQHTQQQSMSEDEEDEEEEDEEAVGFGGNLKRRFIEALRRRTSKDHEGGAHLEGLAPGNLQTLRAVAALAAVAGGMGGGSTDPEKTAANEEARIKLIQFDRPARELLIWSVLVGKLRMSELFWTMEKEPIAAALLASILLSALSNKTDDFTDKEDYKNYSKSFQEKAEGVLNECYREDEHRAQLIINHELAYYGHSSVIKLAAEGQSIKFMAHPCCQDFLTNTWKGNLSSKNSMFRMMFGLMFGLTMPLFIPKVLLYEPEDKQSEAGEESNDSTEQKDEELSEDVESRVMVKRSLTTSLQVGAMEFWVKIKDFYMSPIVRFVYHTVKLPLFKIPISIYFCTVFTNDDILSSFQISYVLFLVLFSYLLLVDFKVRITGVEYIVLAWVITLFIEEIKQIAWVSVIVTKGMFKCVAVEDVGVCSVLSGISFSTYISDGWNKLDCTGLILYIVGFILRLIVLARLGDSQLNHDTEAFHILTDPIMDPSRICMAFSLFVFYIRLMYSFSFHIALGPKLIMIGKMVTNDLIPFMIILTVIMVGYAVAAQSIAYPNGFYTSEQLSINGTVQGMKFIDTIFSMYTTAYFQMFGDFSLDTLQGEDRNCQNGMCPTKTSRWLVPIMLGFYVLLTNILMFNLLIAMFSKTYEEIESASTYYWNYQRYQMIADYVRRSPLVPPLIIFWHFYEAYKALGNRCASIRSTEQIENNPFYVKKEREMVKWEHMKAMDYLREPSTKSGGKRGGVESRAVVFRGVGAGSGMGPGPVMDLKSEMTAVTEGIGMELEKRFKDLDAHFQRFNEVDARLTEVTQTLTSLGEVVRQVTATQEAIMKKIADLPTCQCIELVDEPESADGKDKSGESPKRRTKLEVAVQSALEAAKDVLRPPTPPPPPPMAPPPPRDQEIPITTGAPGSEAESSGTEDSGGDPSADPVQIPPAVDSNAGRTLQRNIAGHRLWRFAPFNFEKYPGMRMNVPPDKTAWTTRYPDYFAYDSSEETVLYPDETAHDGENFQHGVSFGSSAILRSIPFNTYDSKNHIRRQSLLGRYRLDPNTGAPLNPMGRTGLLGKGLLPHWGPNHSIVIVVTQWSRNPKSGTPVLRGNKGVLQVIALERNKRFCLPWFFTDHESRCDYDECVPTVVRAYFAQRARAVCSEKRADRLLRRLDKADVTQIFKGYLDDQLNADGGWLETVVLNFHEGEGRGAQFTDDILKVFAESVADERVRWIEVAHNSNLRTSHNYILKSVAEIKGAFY
Sequence of Sm.TRPMPZQ (A0A5K4F0X5 entry or part of it): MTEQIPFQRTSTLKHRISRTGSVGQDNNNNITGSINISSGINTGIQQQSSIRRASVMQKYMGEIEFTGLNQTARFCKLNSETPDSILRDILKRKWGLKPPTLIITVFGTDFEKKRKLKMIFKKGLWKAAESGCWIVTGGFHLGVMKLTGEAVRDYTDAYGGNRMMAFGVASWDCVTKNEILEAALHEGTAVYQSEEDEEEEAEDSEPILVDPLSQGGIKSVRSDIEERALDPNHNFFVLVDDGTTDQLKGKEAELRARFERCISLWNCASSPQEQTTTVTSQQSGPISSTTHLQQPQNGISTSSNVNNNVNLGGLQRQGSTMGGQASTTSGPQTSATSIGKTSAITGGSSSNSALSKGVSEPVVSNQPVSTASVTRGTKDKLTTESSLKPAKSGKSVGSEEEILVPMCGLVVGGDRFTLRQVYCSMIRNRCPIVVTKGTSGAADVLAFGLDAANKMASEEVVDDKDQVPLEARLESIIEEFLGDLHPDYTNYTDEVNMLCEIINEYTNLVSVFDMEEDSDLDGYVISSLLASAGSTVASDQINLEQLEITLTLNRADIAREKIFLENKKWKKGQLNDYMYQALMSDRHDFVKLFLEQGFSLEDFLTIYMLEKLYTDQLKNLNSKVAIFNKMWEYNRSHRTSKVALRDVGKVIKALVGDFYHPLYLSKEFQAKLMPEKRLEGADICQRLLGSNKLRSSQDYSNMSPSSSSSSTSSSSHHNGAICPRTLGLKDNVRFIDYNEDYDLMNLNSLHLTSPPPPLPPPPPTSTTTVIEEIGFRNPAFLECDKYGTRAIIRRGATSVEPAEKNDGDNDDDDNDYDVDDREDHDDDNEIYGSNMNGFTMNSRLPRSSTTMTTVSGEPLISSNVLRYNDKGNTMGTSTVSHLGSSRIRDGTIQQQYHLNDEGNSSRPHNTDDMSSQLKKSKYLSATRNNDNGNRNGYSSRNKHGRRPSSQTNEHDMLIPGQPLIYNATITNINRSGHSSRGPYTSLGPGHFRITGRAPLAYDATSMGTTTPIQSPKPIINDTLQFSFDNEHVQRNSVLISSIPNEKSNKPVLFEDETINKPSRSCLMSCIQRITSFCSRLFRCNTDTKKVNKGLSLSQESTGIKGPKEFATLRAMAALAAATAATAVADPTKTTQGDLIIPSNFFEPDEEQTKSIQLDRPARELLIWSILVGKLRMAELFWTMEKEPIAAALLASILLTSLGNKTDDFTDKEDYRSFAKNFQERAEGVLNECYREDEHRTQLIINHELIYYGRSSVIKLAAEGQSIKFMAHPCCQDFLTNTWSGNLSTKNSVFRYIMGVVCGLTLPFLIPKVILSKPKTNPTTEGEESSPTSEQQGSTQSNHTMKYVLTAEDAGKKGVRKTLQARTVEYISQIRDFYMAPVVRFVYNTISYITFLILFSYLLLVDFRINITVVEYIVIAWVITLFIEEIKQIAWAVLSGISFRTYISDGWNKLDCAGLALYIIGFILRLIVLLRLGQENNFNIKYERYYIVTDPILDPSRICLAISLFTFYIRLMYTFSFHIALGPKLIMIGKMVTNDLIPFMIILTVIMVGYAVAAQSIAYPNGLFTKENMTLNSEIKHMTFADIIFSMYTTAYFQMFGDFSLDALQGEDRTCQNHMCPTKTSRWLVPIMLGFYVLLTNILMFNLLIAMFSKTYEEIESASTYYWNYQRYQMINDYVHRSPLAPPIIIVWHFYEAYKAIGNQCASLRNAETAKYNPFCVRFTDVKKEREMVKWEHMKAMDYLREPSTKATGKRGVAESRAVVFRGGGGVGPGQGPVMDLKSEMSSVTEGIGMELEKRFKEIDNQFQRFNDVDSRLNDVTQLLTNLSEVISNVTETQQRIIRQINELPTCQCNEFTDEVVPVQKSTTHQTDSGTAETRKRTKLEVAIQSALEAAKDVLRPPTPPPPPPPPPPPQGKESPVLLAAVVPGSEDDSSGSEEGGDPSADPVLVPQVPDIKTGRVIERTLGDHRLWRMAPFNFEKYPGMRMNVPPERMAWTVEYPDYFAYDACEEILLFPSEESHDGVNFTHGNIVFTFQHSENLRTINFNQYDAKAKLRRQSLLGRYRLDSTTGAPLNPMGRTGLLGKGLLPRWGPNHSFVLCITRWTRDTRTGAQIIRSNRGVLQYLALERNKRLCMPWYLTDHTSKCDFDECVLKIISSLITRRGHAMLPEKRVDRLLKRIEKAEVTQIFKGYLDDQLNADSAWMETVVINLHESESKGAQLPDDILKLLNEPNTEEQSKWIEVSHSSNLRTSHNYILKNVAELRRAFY

Row | EC50 (Sm.TRPMPZQ) | pIC50 ([3]; 12 h postincubation) | Compound | previous studies S. mansoni in vivo (activity grade, worm reduction) (S. mansoni [1]) | activity at cestode TRPMPZQ orthologs (in words) (Eg.TRPMPZQ) | activity at Sm.TRPMPZQ (in words) (Sm.TRPMPZQ) | this work: EC50 (μM) Sm.TRPMPZQ (Sm.TRPMPZQ) | previous studies H. nana in vivo (activity grade, worm reduction) (H. nana) | previous studies S. mansoni in vitro (activity grade) (S. mansoni [2]) | pIC50 ([3]; after 24 h) | contraction of the protoscoleces (in words) ([3]; (±)-PZQ 1 μM, (R)-2 30 μM, (S)-2 100 μM, compared with vehicle control) | effect of prolonged treatment on protoscoleces (in words) ([3]; after 24 h) | effect of low concentrations on motility (in words) ([3]; low concentrations, early time points (0.5 h)) | concentrations activating both cestode TRPMPZQ representatives (Eg.TRPMPZQ)
1 |  |  | O=C(c1cccnc1)N1CC(=O)N2CCc3ccccc3C2C1 (racemic) [(±)-2] | + | low-micromolar potency | little activity | inactive | +++ | + (“+” indicates a less than maximal effect at ≤320 μM) |  |  |  |  | 
2 | > 100 µM |  | O=C(c1cccnc1)N1CC(=O)N2CCc3ccccc3[C@@H]2C1 [(R)-2] | ++ |  |  |  | +++ | 0 (“0” indicates no effect at ≤320 μM) | ~5.52 |  |  |  | 
3 |  |  | O=C(C1CCCCC1)N1CC(=O)N2CCc3ccccc3[C@@H]2C1 [(R)-PZQ, reference compound] | +++ |  |  |  | +++ | +++ (“+++” indicates a maximal effect ≤3.2 μM) |  |  |  |  | 
4 |  |  | O=C(c1cccnc1)N1CC(=O)N2CCc3ccccc3[C@H]2C1 [(S)-2] | 0 |  |  | inactive | ++ | 0 (“0” indicates no effect at ≤320 μM) | ~4.52 |  |  |  | 
5 |  |  | O=C(C1CCCCC1)N1CC(=O)N2CCc3ccccc3[C@H]2C1 [(S)-PZQ, reference compound] | + |  |  |  | ++ | ++ (“++” indicates a maximal effect ≤320 μM) |  |  |  |  | 
6 |  | ~7.00 | O=C(C1CCCCC1)N1CC(=O)N2CCc3ccccc3C2C1 (stereo not shown) [Compound 1, praziquantel] | +++ |  |  |  | +++ | +++ (“+++” indicates a maximal effect ≤3.2 μM) |  | sustained contraction | toxic | stimulated motility | 
7 |  |  | O=C(c1ccc([N+](=O)[O-])cc1)N1CC(=O)N2CCc3ccccc3C2C1 (stereo not shown) [Compound 3] | + |  |  | inactive | ++ | 0 (“0” indicates no effect at ≤320 μM) |  |  |  |  | 
8 |  |  | CNc1ccc(C(=O)N2CC(=O)N3CCc4ccccc4C3C2)cc1 (stereo not shown) [Compound 4] | ++ |  |  | inactive | +++ | 0 (“0” indicates no effect at ≤320 μM) |  |  |  |  | 
9 |  |  | CN(C)c1ccc(C(=O)N2CC(=O)N3CCc4ccccc4C3C2)cc1 (stereo not shown) [Compound 5] | ++ |  |  | inactive | +++ | 0 (“0” indicates no effect at ≤320 μM) |  |  |  |  | 
10 | 11.6 µM and 12 µM |  | Nc1ccc(C(=O)N2CC(=O)N3CCc4ccccc4C3C2)cc1 (stereo not shown) [Compound 6] | ++ |  |  |  | +++ | ++ (“++” indicates a maximal effect ≤320 μM) |  |  |  |  | 
11 |  |  | N[C@H]1CC[C@@H](C(=O)N2CC(=O)N3CCc4ccccc4C3C2)CC1 (stereo partly shown) [Compound 7] | 0 | only weakly active | lacked activity | inactive | + | 0 (“0” indicates no effect at ≤320 μM) |  |  |  |  | 
12 |  |  | O=C(C1CC1)N1CC(=O)N2CCc3ccccc3C2C1 (stereo not shown) [Compound 8] | + | clearly active | Little activity | inactive | ++ | 0 (“0” indicates no effect at ≤320 μM) |  |  |  |  | > 10 µM
